Measurements as given in patent publication US20030109529A1, “Use of s-triazines for treating Apicomplexan parasitic infections” (priority 1999, published 2003).

Assays:
[1] = system: wild type Plasmodium falciparum; test: In vitro red blood cell culture infected with wild type Plasmodium falciparum, percent RBCs infected; assay type: cell-based; conditions: for effectiveness compared with chloroquine (text to Table 2): 2.0-0.02 μM
Protocol: The in vitro method used to test the anti-malarial effectiveness of various s-triazines was adapted from Trager, 1994, Methods in Cell Biology Vol 45:7-26.
(§1) Briefly, a red blood cell suspension at a malarial (wild type Plasmodium falciparum) infection rate of approximately 1% was added to each well of a 96 well micro titer plate. The test compound was added to the cultures at final concentrations of 2.0, 0.2 or 0.02 μM. and incubated in an environment of 5% CO2, 5% O2 and 90% N2 at 37° C. Every 24 hrs the dish was removed, 100 μl of spent medium removed and 100 μl of fresh, compound containing-medium was added back to each well. This procedure was repeated daily.
(§2) At 48 hrs and again at 96 hrs, blood smears were made from each well and 500 Red Blood Cells (RBCs) were counted and inspected for malarial infection. The percent infection rate was then determined for each experimental condition tested.
(§3) Malaria parasite (P. falciparum) was grown in culture as described previously. At 48 hours and 96 hours of treatment, red blood cells were taken from culture and the percent red blood cells infected with the parasite was determined by microscopic examination.
The data in Table 2 represent percent red blood cell (RBC) infection rate at 48 hrs of treatment with the antimalarial test compound. Control cultures were 35% RBC infected.

[2] = system: chloroquine resistant P. falciparum (Clq res); test: In vitro RBC culture, chloroquine resistant P. falciparum; assay type: cell-based, Plasmodium falciparum; conditions: for percentage of RBCs infected with chloroquine-resistant P. falciparum: Example 2, 48 hrs or 96 hrs after treatment; for Red Blood Cell Infection Rate: chloroquine-resistant, 96 hrs of treatment, 0.02 μM, control 28
Plasmodium berghi = test: In vivo evaluation against Plasmodium berghi in Lewis rats, intravenous treatment; parameters: species or system rat; conditions: 20 mg/kg I.V., 24 and 48 hrs
Protocol: In vivo testing was performed using juvenile female Lewis rats. Rats were inoculated intraperitoneally with 30,000,000 Plasmodium berghi infected RBCs. Rats were bled daily from the tail vein and, when parasitemia reached 1-3%, therapy was begun.
Blood smears were obtained at 24 and 48 hrs. The percent RBCs infected was then calculated after counting and inspecting 500 RBCs for each rat.

[3] = system: multi-drug resistant P. falciparum (MDR); test: In vitro RBC culture, multi-drug resistant P. falciparum; assay type: cell-based, Plasmodium falciparum; conditions: for Red Blood Cell Infection Rate: multidrug-resistant, 96 hrs of treatment, 0.02 μM, control 25
Protocol: as §1, §2, §3

P. falciparum = test: Isobologram analysis of chloroquine and atrazine in vitro against P. falciparum; assay type: cell-based, Plasmodium falciparum; conditions: each drug alone at its ID50, or combinations of the stated fractions of each ID50
Protocol: Drugs can interact in additive, antagonistic or synergistic manner. See Berenbaum, J. Infect. Dis., 137:122-130, 1978. The isobologram assay permits determination of the type of interaction that occurs between drugs of interest. The ID50, or […], for both drugs was calculated.
Next, the drugs were tested in vitro at the ID50 for each drug alone and various combinations of drugs as described below:
These combinations of drugs were tested in vitro against P. falciparum and the data analyzed.

[4] = system: mefloquine resistant P. falciparum (Mfl res); test: In vitro RBC culture, mefloquine resistant P. falciparum; assay type: cell-based, Plasmodium falciparum; conditions: for Red Blood Cell Infection Rate: mefloquine-resistant, 96 hrs of treatment, 0.02 μM, control 24; for percentage of RBCs infected with mefloquine-resistant P. falciparum: Example 3, 48 hrs or 96 hrs after treatment
Protocol: as §1, §2
The procedure set forth in Example 1 is utilized for testing the effectiveness of mefloquine and atrazine against mefloquine-resistant P. falciparum.
as §3

P. berghei = test: In vivo efficacy against P. berghei in rats, single oral dose; parameters: species or system rat; conditions: single oral dose (Chloroquine 20 mg/kg, Atrazine 100 mg/kg) 4 h after inoculation; for Parasitemia Day 4: ethanol control 24%; for Parasitemia Day 11: ethanol control 42%
Protocol: Rats weighing 60-70 gms were inoculated with P. berghei infected rat red blood cells. […] Blood was obtained 4 days and 11 days later and parasitemia assessed using light microscopy of blood smears. The percent parasitemia (i.e., the presence of parasites in the blood) was then determined for each group and the data are summarized in the table below: […]

[5] = system: yeast transfected with malarial dihydrofolate reductase (folate sensitive); test: Yeast assay for antifolate activity, folate sensitive yeast; assay type: cell-based, Saccharomyces cerevisiae; conditions: 48 hours of treatment
Protocol: (§4) We have established a in vitro yeast assay model for determining sensitivity to antifolate anti-malarials.
(§5) Saccharomyces cerevisiae was grown in culture and after 48 hours of treatment as described below the growth of the yeast was determined. Control (i.e., yeast grown with no treatment) is considered to be 100% growth. Drug treatment was then related to the controls as a percent of control growth. S. cerevisiae types tested included wild type yeast, yeast made sensitive to antifolate antimalarials by transfecting yeast with malarial dihydrofolate reductase (folate sensitive or folate sen), yeast transfected but not sensitive to antifolate antimalarials (folate insensitive or folate insen).

[6] = system: yeast transfected but not sensitive to antifolate antimalarials (folate insensitive); test: Yeast assay for antifolate activity, folate insensitive yeast; assay type: cell-based, Saccharomyces cerevisiae; conditions: 48 hours of treatment
Protocol: as §4, §5

[7] = system: wild type Plasmodium falciparum; test: In vitro red blood cell culture infected with wild type Plasmodium falciparum, percent RBCs infected; assay type: cell-based; conditions: 0.006 μM to 0.4 μM
Toxoplasma gondii = test: In vitro anti-Toxoplasma test in human foreskin fibroblasts; assay type: cell-based; conditions: 24 hrs after treatment
Protocol: Human foreskin fibroblasts are grown to confluency in 12 well plates. Next, Toxoplasma gondii is added to the plates. The resultant cultures are treated with the test compound 24 hrs later. […]

calf DHFR = target: T1, calf DHFR (Bos taurus, UniProt P00376); test: DHFR enzyme assay, calf liver homogenate; assay type: biochemical
T1 construct: tested using homogenates of calf liver, rat liver and cultures of P. falciparum; from tissue; host or cells: calf liver homogenate
T1 sequence (P00376 1-187): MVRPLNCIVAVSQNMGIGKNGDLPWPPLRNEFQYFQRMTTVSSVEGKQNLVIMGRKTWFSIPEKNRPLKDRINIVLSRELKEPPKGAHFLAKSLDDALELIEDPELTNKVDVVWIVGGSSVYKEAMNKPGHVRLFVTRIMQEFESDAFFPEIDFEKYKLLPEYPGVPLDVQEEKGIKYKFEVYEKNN
Protocol: (§6) The ability of atrazine to inhibit dihydrofolate reductase (DHFR) is also tested using homogenates of calf liver, rat liver and cultures of P. falciparum. Atrazine's ability to inhibit mammalian DHFR (i.e., calf DHFR and rat DHFR) as well as malarial DHFR is determined using standard enzyme assays and the Michaelis-Menton analysis. The Michaelis-Menton hypothesis states that a complex is formed between an enzyme and its substrate and that the complex then dissociates to yield free enzyme and the reaction products, with the rate of dissociation determining the overall rate of substrate-product conversion. For a more complete review of the Michaelis constant, see Benet et al., 1996, Pharmacokinetics, Chapter 1:3-27, In Goodman & Gilman's The Pharmacological Basis of Therapeutics, Ninth Edition, McGraw-Hill; and Ross, 1996, Pharmacodynamics, Chapter 2:29-41, Id.

wild type yeast = test: Yeast assay for antifolate activity, wild type yeast; assay type: cell-based, Saccharomyces cerevisiae; conditions: 48 hours of treatment
[8] = rats given a single injection; cited from earlier work
malarial DHFR = test: DHFR enzyme assay, cultures of P. falciparum; assay type: biochemical
Protocol: as §6

rat DHFR = target: T2, rat DHFR (Rattus norvegicus, UniProt Q920D2); test: DHFR enzyme assay, rat liver homogenate; assay type: biochemical
T2 construct: tested using homogenates of calf liver, rat liver and cultures of P. falciparum; from tissue; host or cells: rat liver homogenate
T2 sequence (Q920D2 1-187): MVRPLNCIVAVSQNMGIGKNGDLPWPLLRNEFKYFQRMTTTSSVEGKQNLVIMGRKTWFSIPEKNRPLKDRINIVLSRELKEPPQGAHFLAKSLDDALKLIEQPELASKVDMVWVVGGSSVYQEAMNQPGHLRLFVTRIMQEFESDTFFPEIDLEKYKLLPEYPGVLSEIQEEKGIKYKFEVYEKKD
Protocol: as §6

[9] = system: antifolate-resistant P. falciparum; test: In vitro RBC culture, antifolate-resistant P. falciparum; assay type: cell-based, Plasmodium falciparum; conditions: Example 4, 48 hrs or 96 hrs after treatment
Protocol: as §1, §2
The procedure set forth in Example 1 is utilized for testing the effectiveness of triazine and atrazine against antifolate-resistant P. falciparum.

[10] = system: wild type rodent malaria (Plasmodium berghi); test: In vitro evaluation against wild type rodent malaria; assay type: cell-based; conditions: Experiment 5, 48 hrs or 96 hrs after treatment
Protocol: as §1, §2
The procedure set forth in Example 1 is utilized for testing compounds against wild type rodent malaria (Plasmodium berghi).

[11] = 48 hrs of treatment, 0.02 μM, control 35%
[12] = 48 hrs of treatment, 0.2 μM, control 35%
[13] = 48 hrs of treatment, 2.0 μM, control 35%
[14] = wild type, 96 hrs of treatment, 0.02 μM, control 18

## CCNc1nc(Cl)nc(NC(C)(C)C#N)n1 [cyanazine, 2-[[4-chloro-6-(ethylamino)-s-triazin-2-yl]amino]-2-methyl propionitrile]
[1]; [11]
  Red Blood Cell Infection Rate: 18%
[1]; [12]
  Red Blood Cell Infection Rate: 17%
[1]; [13]
  Red Blood Cell Infection Rate: 16%
[1]; 48 hrs of treatment
  effectiveness compared with chloroquine (text to Table 2): less effective

## CCN(CC)CCCC(C)Nc1ccnc2cc(Cl)ccc12 (stereo not drawn) [chloroquine, reference compound]
[2]
  percentage of RBCs infected with chloroquine-resistant P. falciparum: significantly higher level of RBCs being infected
  Red Blood Cell Infection Rate: 28%
Plasmodium berghi
  in vivo percentage of RBCs infected with P. berghi compared to non-treated controls (FIG. 6): disease dramatically reduced
[3]
  Red Blood Cell Infection Rate: 22%
P. falciparum
  Percent Growth Inhibition: 60%
[4]
  Red Blood Cell Infection Rate: 13%
[1]; [11]
  Red Blood Cell Infection Rate: 4%
[1]; [12]
  Red Blood Cell Infection Rate: 0%
[1]; [13]
  Red Blood Cell Infection Rate: 0%
[1]; [14]
  Red Blood Cell Infection Rate: 3%
P. berghei
  Parasitemia Day 4: 5.8%
  Parasitemia Day 11: 11%
[5]
  yeast growth (FIG. 7): Neither chloroquine (Clq) nor atrazine affected growth
[6]
  yeast growth (FIG. 7): Neither chloroquine (Clq) nor atrazine affected growth

## OC(c1cc(C(F)(F)F)nc2c(C(F)(F)F)cccc12)C1CCCCN1 (stereo not drawn) [mefloquine, reference compound]
[4]
  percentage of RBCs infected with mefloquine-resistant P. falciparum: significantly higher level of RBCs being infected

## CCNc1nc(Cl)nc(NC(C)C)n1 [atrazine, 2-chloro-4-ethylamino-6-isopropylamino-s-triazine]
[7]
  effectiveness compared with chloroquine (FIG. 5): as effective and potent as chloroquine
Toxoplasma gondii
  percentage of fibroblast cells infected with T. gondii: relatively low percentage of the cells being infected
[2]
  percentage of RBCs infected with chloroquine-resistant P. falciparum: relatively low percentage of the RBCs being infected
  Red Blood Cell Infection Rate: 4%
[2]; chloroquine resistant, 48 and 96 hours
  effectiveness against resistant parasite (FIGS. 8, 9): effective against several classic forms of resistance
Calf DHFR
  inhibition of DHFR: does not inhibit DHFR
Plasmodium berghi
  in vivo percentage of RBCs infected with P. berghi compared to non-treated controls (FIG. 6): disease dramatically reduced
Wild type yeast
  yeast growth (FIG. 7): Neither chloroquine (Clq) nor atrazine affected growth
[8]
  LD50: ~3000 mg/kg
Malarial DHFR
  inhibition of DHFR: does not inhibit DHFR
[3]; multi-drug resistant, 48 and 96 hours
  effectiveness against resistant parasite (FIGS. 8, 9): effective against several classic forms of resistance
[3]
  Red Blood Cell Infection Rate: 3%
Rat DHFR
  inhibition of DHFR: does not inhibit DHFR
P. falciparum
  Percent Growth Inhibition: 58%
[4]
  percentage of RBCs infected with mefloquine-resistant P. falciparum: relatively low percentage of the RBCs being infected
  Red Blood Cell Infection Rate: 3%
[4]; mefloquine resistant, 48 and 96 hours
  effectiveness against resistant parasite (FIGS. 8, 9): effective against several classic forms of resistance
[9]
  percentage of RBCs infected with antifolate-resistant P. falciparum: relatively low percentage of the RBCs being infected
[1]; [11]
  Red Blood Cell Infection Rate: 3%
[1]; [12]
  Red Blood Cell Infection Rate: 0%
[1]; [13]
  Red Blood Cell Infection Rate: 0%
[1]; 48 hrs of treatment
  effectiveness compared with chloroquine (text to Table 2): substantially similar in effectiveness as chloroquine
[1]; low concentrations, 48 hrs or 96 hrs after treatment
  percentage of RBCs infected with P. falciparum (FIGS. 1-4): relatively low percentage of the RBCs being infected
[1]; [14]
  Red Blood Cell Infection Rate: 3%
P. berghei
  Parasitemia Day 4: 6.0%
  Parasitemia Day 11: 10.5%
[5]
  yeast growth (FIG. 7): Neither chloroquine (Clq) nor atrazine affected growth
[6]
  yeast growth (FIG. 7): Neither chloroquine (Clq) nor atrazine affected growth
[10]
  percentage of RBCs infected with P. berghi: relatively low percentage of the RBCs being infected
